Each block holds one molecule with its values, some of them ahead of it.
How the values were obtained:
[1] = target: Vascular endothelial growth factor receptor (Homo sapiens, UniProt P17948+P35916+P35968); assay: Inhibition of VEGF-stimulated human umbilical vein endothelial cell proliferation; format: functional, cell-based
[2] = target: Vascular endothelial growth factor receptor 2 (Homo sapiens, UniProt P35968); assay: Inhibition of human vascular endothelial growth factor receptor 2 kinase activity
[3] = target: Fibroblast growth factor receptor 1 (Homo sapiens, UniProt P11362); assay: Inhibition of human fibroblast growth factor receptor 1
[4] = target: Fibroblast growth factor receptor (Homo sapiens, UniProt P22607+P11362+P22455+P21802); assay: Inhibition of FGF-stimulated human umbilical vein endothelial cell proliferation; format: functional, cell-based
[5] = target: Receptor tyrosine-protein kinase erbB-2 (Homo sapiens, UniProt P04626); assay: Inhibition against human HER2 kinase
[6] = target: Protein kinase C alpha type (Homo sapiens, UniProt P17252); assay: Inhibition of human protein kinase C alpha
[7] = target: Insulin-like growth factor 1 receptor (Homo sapiens, UniProt P08069); assay: Inhibition of human insulin-like growth factor I receptor
[8] = target: Cyclin-dependent kinase 2 (Homo sapiens, UniProt P24941); assay: Inhibition of human cyclin-dependent kinase 2
[9] = Plasma level after 1 hour of oral administration of 50 mg/kg compound in mouse; format: ADME, organism-based; set-up: dose 50 mg/kg, route oral; conditions: read-out: Plasma level
[10] = Plasma level after 4 hours of oral administration of 50 mg/kg compound in mouse; format: ADME, organism-based; set-up: dose 50 mg/kg, route oral; conditions: read-out: Plasma level
Mus musculus [11] = assay: Tumor growth inhibition determined after oral administration of 100 mg/kg/day compound against established L2987 human lung carcinoma xenografts implanted subcutaneously in athymic mouse; format: functional; conditions: read-out: TGI
Mus musculus [12] = assay: Tumor growth inhibition determined after oral administration of 60 mg/kg/day compound against established L2987 human lung carcinoma xenografts implanted subcutaneously in athymic mouse; format: functional; conditions: read-out: TGI
Mus musculus [13] = assay: Tumor growth inhibition of L2987 human lung carcinoma xenografts implanted subcutaneously in athymic mouse after oral administration of 150 mg/kg/day; format: functional; conditions: read-out: TGI
[14] = Plasma level after 4 hours of oral administration of 10 mg/kg compound in mouse
[15] = Oral bioavailability determined after administration of 10 mg/kg dose po in mouse; format: ADME, organism-based; conditions: in vivo
[16] = Systemic plasma clearance determined after administration of 5 mg/kg dose iv in mouse; format: ADME, organism-based; set-up: dose 5 mg/kg, route intravenous
Mus musculus [17] = assay: Tumor growth inhibition of L2987 human lung carcinoma xenografts implanted subcutaneously in athymic mouse after oral administration of 50 mg/kg/day; format: functional; conditions: read-out: TGI
[18] = Maximum plasma concentration determined after administration of 5 mg/kg dose iv in mouse; format: ADME, organism-based; set-up: dose 5 mg/kg, route intravenous
[19] = Plasma level after 1 hour of oral administration of 10 mg/kg compound in mouse
[20] = Steady-state volume of distribution determined after administration of 5 mg/kg dose iv in mouse; format: ADME, organism-based; set-up: dose 5 mg/kg, route intravenous; conditions: in vivo, read-out: Vss
[21] = Area under curve determined after administration of 10 mg/kg dose po in mouse; format: ADME, organism-based; set-up: dose 10 mg/kg, route oral; conditions: in vivo
[22] = Area under curve determined after administration of 5 mg/kg dose iv in mouse; format: ADME, organism-based; set-up: dose 5 mg/kg, route intravenous; conditions: in vivo
Mus musculus [23] = assay: Tumor growth inhibition of L2987 human lung carcinoma xenografts implanted subcutaneously in athymic mouse after oral administration of 100 mg/kg/day; format: functional; conditions: read-out: TGI
[24] = Mean residence time determined after administration of 10 mg/kg dose po in mouse; format: ADME, organism-based; set-up: dose 10 mg/kg, route oral; conditions: in vivo
[25] = Total time required to reach maximum plasma concentration after administration of 10 mg/kg dose po in mouse; format: ADME, organism-based; set-up: dose 10 mg/kg, route oral
[26] = Half-life determined after administration of 5 mg/kg dose iv in mouse; format: ADME, organism-based; set-up: dose 5 mg/kg, route intravenous; conditions: in vivo
[27] = Half-life determined after administration of 10 mg/kg dose po in mouse; format: ADME, organism-based; set-up: dose 10 mg/kg, route oral; conditions: in vivo
[28] = Maximum plasma concentration determined after administration of 10 mg/kg dose po in mouse; format: ADME, organism-based; set-up: dose 10 mg/kg, route oral
[29] = target: Tyrosine-protein kinase Lck (Homo sapiens, UniProt P06239); assay: Inhibition of human p56 lck tyrosine kinase
[30] = Mean residence time determined after administration of 5 mg/kg dose iv in mouse; format: ADME, organism-based; set-up: dose 5 mg/kg, route intravenous; conditions: in vivo
[31] = target: Platelet-derived growth factor receptor beta (Homo sapiens, UniProt P09619); assay: Inhibition of human platelet-derived growth factor receptor beta

Fibroblast growth factor receptor 1, sequence (P11362 whole entry): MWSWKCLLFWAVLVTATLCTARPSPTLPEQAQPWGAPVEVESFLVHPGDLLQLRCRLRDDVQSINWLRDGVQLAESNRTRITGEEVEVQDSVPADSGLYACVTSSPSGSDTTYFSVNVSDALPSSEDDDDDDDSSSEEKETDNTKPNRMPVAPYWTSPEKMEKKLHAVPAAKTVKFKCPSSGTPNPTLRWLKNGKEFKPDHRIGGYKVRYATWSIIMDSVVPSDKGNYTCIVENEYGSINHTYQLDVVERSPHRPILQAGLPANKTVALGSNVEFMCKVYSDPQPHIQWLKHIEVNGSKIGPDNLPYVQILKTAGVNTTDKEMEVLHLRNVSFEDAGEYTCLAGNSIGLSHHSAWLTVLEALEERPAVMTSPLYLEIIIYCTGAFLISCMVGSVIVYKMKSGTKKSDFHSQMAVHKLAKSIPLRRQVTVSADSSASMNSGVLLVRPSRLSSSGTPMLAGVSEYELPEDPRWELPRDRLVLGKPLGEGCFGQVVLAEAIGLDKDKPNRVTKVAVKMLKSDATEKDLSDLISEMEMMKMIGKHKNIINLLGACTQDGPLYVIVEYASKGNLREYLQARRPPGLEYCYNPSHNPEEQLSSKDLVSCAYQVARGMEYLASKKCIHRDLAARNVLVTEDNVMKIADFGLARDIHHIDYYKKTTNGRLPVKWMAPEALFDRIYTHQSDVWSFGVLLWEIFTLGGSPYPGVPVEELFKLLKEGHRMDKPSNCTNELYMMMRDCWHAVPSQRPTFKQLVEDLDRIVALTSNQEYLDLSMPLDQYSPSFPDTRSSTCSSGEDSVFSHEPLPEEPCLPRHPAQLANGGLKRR
Vascular endothelial growth factor receptor 2, sequence (P35968 whole entry): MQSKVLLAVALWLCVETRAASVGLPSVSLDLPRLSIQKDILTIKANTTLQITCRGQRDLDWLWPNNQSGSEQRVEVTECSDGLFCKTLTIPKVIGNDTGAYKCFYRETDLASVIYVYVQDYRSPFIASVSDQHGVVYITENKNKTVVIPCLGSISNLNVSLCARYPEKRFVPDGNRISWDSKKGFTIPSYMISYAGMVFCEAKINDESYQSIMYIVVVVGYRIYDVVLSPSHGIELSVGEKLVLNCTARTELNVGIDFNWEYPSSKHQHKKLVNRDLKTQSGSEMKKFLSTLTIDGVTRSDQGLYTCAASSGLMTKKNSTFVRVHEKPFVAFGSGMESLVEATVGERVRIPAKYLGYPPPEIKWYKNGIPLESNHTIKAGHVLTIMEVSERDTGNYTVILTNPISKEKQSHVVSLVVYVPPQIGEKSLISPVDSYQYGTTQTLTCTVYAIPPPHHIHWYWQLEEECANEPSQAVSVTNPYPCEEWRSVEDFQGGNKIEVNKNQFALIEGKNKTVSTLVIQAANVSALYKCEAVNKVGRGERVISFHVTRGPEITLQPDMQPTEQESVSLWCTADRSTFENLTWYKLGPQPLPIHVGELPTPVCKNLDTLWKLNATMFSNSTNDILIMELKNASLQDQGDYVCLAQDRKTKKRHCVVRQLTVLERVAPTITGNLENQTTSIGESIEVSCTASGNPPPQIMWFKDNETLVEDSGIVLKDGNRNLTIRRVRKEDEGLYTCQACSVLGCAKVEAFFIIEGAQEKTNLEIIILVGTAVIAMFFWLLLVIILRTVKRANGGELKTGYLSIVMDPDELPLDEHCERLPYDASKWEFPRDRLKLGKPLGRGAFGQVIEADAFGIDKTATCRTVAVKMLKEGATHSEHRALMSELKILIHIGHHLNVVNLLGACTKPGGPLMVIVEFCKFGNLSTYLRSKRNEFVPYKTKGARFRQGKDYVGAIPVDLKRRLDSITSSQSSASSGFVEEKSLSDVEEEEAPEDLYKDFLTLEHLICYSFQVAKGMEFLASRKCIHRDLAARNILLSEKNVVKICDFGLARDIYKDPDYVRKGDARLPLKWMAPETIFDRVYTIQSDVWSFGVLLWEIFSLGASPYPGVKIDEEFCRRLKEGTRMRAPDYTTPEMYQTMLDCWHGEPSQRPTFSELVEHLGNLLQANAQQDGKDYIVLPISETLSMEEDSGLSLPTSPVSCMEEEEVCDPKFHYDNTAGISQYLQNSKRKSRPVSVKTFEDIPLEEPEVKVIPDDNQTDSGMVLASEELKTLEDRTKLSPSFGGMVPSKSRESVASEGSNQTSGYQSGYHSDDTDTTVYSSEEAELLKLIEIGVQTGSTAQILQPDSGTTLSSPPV
Receptor tyrosine-protein kinase erbB-2, sequence (P04626 whole entry): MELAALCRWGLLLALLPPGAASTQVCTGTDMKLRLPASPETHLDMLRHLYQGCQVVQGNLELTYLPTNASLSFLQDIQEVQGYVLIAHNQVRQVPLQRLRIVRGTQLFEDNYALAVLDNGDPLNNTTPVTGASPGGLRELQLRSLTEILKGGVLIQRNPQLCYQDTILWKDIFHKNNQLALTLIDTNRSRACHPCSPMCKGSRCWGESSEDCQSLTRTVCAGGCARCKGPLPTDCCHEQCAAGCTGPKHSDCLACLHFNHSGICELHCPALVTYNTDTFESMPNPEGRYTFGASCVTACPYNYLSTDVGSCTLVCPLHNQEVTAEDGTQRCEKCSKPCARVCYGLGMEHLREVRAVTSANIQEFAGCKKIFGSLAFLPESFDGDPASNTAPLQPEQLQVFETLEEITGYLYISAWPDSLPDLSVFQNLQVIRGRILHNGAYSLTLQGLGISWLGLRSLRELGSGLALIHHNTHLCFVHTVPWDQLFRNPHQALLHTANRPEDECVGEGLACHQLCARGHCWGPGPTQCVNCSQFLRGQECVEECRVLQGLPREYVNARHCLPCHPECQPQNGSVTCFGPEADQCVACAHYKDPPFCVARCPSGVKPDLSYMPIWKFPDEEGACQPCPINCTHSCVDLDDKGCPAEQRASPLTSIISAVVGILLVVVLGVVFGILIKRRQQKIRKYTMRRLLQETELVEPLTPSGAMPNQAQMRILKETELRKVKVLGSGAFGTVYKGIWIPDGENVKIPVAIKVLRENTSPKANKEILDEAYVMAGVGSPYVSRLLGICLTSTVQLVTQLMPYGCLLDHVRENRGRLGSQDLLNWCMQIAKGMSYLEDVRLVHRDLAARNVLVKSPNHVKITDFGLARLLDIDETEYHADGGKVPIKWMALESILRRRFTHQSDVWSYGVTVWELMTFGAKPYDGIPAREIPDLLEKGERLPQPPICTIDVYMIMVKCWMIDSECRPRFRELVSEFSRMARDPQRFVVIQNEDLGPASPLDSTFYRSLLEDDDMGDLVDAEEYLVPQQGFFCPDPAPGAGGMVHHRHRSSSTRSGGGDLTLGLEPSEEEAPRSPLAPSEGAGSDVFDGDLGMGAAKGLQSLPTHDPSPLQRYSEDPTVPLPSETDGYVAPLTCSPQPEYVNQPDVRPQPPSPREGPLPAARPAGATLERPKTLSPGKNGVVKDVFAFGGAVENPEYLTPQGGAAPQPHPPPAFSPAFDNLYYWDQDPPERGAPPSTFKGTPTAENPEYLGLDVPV
Tyrosine-protein kinase Lck, sequence (P06239 whole entry): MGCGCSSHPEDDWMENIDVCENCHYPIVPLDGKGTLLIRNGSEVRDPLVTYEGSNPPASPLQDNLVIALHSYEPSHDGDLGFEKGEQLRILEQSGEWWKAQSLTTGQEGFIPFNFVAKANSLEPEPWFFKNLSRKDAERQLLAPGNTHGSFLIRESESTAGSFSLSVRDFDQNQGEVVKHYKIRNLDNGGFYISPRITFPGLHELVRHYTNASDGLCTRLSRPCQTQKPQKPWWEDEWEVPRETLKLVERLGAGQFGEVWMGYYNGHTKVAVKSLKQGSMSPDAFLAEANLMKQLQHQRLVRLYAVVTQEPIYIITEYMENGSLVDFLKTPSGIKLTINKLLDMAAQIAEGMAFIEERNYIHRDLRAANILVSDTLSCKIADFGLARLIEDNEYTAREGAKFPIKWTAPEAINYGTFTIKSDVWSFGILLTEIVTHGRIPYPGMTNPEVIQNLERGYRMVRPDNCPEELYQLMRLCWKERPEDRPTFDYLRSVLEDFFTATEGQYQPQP

- IC50 [1]: 25 nM
- IC50 [2]: 29 nM
- IC50 [3]: 68 nM
- IC50 [4]: 44 nM
Compound: CONC(=O)c1cc(Nc2ncnn3cc(-c4nnc(CC(F)(F)F)o4)c(C(C)C)c23)c(F)cc1F

- IC50 [2]: 190 nM
Compound: CCOC(=O)c1cn2ncnc(Nc3cc(C(=O)NOCC4CC4)c(F)cc3F)c2c1C(C)C

- IC50 [2]: 66 nM
- IC50 [3]: 149 nM
Compound: CONC(=O)c1cc(Nc2ncnn3cc(-c4nnc(CN(C)C)o4)c(C(C)C)c23)c(F)cc1F

- IC50 [1]: 1.8 nM
- IC50 [2]: 17 nM
- IC50 [3]: 28 nM
- IC50 [4]: 4.7 nM
Compound: CCc1nnc(-c2cn3ncnc(Nc4cc(C(=O)NOC)c(F)cc4F)c3c2C(C)C)o1

- IC50 [2]: 79 nM
Compound: CCOC(=O)c1cn2ncnc(Nc3ccc(F)c(C(=O)NOC)c3)c2c1C(C)C

- IC50 [2]: 34 nM
Compound: CCOC(=O)c1cn2ncnc(Nc3cc(C(=O)NOC)ccc3F)c2c1C(C)C

- IC50 [1]: 62 nM
- IC50 [2]: 79 nM
Compound: CONC(=O)c1cc(Nc2ncnn3cc(NC(=O)OCCCN4CCCCC4)c(C(C)C)c23)c(F)cc1F

- IC50 [5]: > 10000 nM
- IC50 [6]: > 50000 nM
- IC50 [7]: > 25000 nM
- IC50 [8]: > 50000 nM
- concentration at 1 h [9]: 29.5 µM
- concentration at 4 h [10]: 2.9 µM
Compound: CONC(=O)c1cc(Nc2ncnn3cc(NC(=O)OCC4CCCO4)c(C(C)C)c23)c(F)cc1F (centres undefined)

Compound: CONC(=O)c1cc(Nc2ncnn3cc(-c4nnc(CC5CC5)o4)c(C(C)C)c23)c(F)cc1F
- IC50 [1]: 4 nM
- IC50 [2]: 17 nM
- IC50 [3]: 27 nM
- IC50 [4]: 9.2 nM

- IC50 [2]: 270 nM
Compound: CCOC(=O)c1cn2ncnc(Nc3ccc(Br)c(C(=O)NOC)c3)c2c1C(C)C

- IC50 [2]: 40 nM
Compound: CCONC(=O)c1cc(Nc2ncnn3cc(C(=O)OCC)c(C(C)C)c23)c(F)cc1F

- IC50 [1]: 2.1 nM
- IC50 [2]: 16 nM
- IC50 [3]: 16 nM
- IC50 [4]: 4.6 nM
- concentration at 1 h [9]: 288 µM
- concentration at 4 h [10]: 232 µM
Compound: CONC(=O)c1cc(Nc2ncnn3cc(-c4nnc(CS(C)(=O)=O)o4)c(C(C)C)c23)c(F)cc1F
- inhibition in vivo at 100 mg/kg/day (Mus musculus [11]): 74.9%
- inhibition in vivo at 60 mg/kg/day (Mus musculus [12]): 42.6%

- IC50 [2]: 13 nM
Compound: CCOC(=O)c1cn2ncnc(Nc3cc(C(=O)NOC)c(F)cc3F)c2c1C(C)C

- IC50 [5]: > 25000 nM
- concentration at 4 h [14]: 13.8 µM
- bioavailability [15]: 79%
- clearance [16]: 1.53 mL/min/kg
- IC50 [6]: > 50000 nM
- Cmax [18]: 23.7 µM
- concentration at 1 h [19]: 26.6 µM
- IC50 [3]: 220 nM
- Vd [20]: 0.45 L/kg
- AUC [21]: 155 µM·h
- AUC [22]: 97.4 µM·h
- MRT [24]: 5.2 h
- IC50 [4]: 130 nM
- Tmax [25]: 0.5 h
- half-life [26]: 2.5 h
- IC50 [8]: > 50000 nM
- half-life [27]: 3.6 h
- Cmax [28]: 27.7 µM
- IC50 [29]: 7800 nM
- MRT [30]: 4.9 h
Compound: CONC(=O)c1cc(Nc2ncnn3cc(-c4nnc(C(F)(F)S(C)(=O)=O)o4)c(C(C)C)c23)c(F)cc1F
- inhibition in vivo at 150 mg/kg/day (Mus musculus [13]): 94.2%
- inhibition in vivo at 50 mg/kg/day (Mus musculus [17]): 63.9%
- inhibition in vivo at 100 mg/kg/day (Mus musculus [23]): 87.5%

Compound: CONC(=O)c1cc(Nc2ncnn3cc(-c4noc(C)n4)c(C(C)C)c23)c(F)cc1F
- IC50 [2]: 110 nM
- IC50 [3]: 140 nM

- IC50 [1]: 35 nM
- IC50 [2]: 76 nM
- IC50 [3]: 84 nM
- IC50 [4]: 33 nM
Compound: CONC(=O)c1cc(Nc2ncnn3cc(-c4nnc(C(F)(F)F)o4)c(C(C)C)c23)c(F)cc1F

- IC50 [5]: 8000 nM
- IC50 [6]: > 50000 nM
- IC50 [3]: 19 nM
- IC50 [7]: > 25000 nM
- IC50 [4]: 6.5 nM
- IC50 [8]: > 50000 nM
- concentration at 1 h [9]: 132 µM
- concentration at 4 h [10]: 37.7 µM
- IC50 [31]: > 2000 nM
Compound: CONC(=O)c1cc(Nc2ncnn3cc(-c4nnc(C)o4)c(C(C)C)c23)c(F)cc1F
